Experimental findings from patent US7897568B2, “Compositions for treatment of cancer” (priority 2006, dated 2011) are described below.

Where a SMILES comes first, the peptide text is derived from it. Where no end group is shown, it is not given here.

Common to all, as to type: binding
Test [1] deals with GST (Schistosoma japonicum, UniProt P08515). The test can be described thus: Surface plasmon resonance control with GST as analyte. The following applies: SPR, GST as the analyte. On the procedure: (§1) Kinetics of the SNCG-ANK interaction were determined. […] Sensograms were deconvoluted globally, using a simultaneous fit for both association (ka, M^−1s^−1) and dissociation (kd, s^−1).
Chain of GST (P08515 whole entry): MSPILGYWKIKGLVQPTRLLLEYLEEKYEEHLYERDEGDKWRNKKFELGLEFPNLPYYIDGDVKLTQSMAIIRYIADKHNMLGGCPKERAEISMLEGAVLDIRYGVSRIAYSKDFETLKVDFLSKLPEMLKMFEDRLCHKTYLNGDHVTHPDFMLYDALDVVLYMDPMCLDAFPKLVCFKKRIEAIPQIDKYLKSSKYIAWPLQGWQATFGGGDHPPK
(§2) The binding interaction between the ANK peptide and GST-SNCG was examined in real time using a BIACORE 3000 biosensor system (Biacore Inc., NJ). Because of the relatively large amount required in this experiment, GST-SNCG, which expresses at least 2 times better than SNCG, was used. […] The changes in the refractive index at the sensor chip surface with respect to time are scaled in resonance units (RU). For proteins, every 1000 RU corresponds to a surface mass change of ˜1 ng/mm^2. All experiments were performed at 25° C. using research grade carboxymethylated dextran matrix (CM5) sensor chips (Biacore Inc.). […] Prior to all analyses the GST-SNCG and ANK peptide preparations were dialyzed against the running buffer to minimize bulk effects. Blank analyte injections (running buffer only) were subtracted from the specific binding isotherms to further minimize instrument noise.

Test [2] deals with T1, GST-SNCG (Homo sapiens, UniProt O76070).
T1 construct: The SNCG coding region was amplified from the human cDNA clone; made in house; host or cells: Escherichia coli BL21 (DE3)
T1 sequence (O76070 whole entry): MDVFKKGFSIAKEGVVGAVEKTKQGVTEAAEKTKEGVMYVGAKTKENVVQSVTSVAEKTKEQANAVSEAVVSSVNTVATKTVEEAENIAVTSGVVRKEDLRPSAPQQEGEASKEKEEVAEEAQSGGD
The test can be described thus: Surface plasmon resonance, immobilized ANK peptide with GST-SNCG analyte. The following applies: global fit, two-phase reaction (conformation change) model, 25° C. On the procedure: as §1
as §2, with “Blank analyte injections (running buffer only) were subtracted from the specific binding isotherms to further minimize instrument noise.” left out
In all cases the analyte binding measurements were performed using running buffer 2 (running buffer 1 plus 0.1% P20 surfactant). […] Data was analyzed using BIAevaluation 3.1 software (Biacore Inc.). The data was analyzed globally, using a simultaneous fit for both association (ka, M^−1s^−1) and dissociation (kd, s^−1). The KD (M) value was calculated as kd/ka.
For orientation: In SPR one partner is held on a chip, and binding of the other changes the refractive index at the surface.

In test [3] the target is T1, GST-SNCG. The test can be described thus: GST pull-down of EGFP-ANK with GST-SNCG. The following applies: FIG. 5D, GST as control. The text has this:
FIGS. 5A through 5D show co-localization, co-immunoprecipitation (co-IP) and GST pull down experiments, using an enhance green fluorescent protein (EGFP)-ANK fusion protein, which confirm that SNCG associates with the ANK peptide in vivo. FIG. 5A is a western blot depicting detection of EGFP-ANK expression in COS7 cells. Lanes 2 and 3 were samples transfected with different clones, cl-4 and cl-8, respectively, of pEGFP-ANK plasmid. In FIG. 5B, MCF7-SNCG cells were transfected with pEGFP-ANK, fixed on a cover slip, permeabilized and probed with anti-SNCG and anti-GFP antibodies to observe co-localization. Fluorescent cells were visualized using an ×100 objective (oil) on an inverted confocal microscope (Leica). FIGS. 5C and 5D are western blots showing association of SNCG and ANK peptide as evidenced by co-IP of SNCG with EGFP-ANK in MCF7-SNCG and MCF7-neo cells. In these experiments, MCF7-SNCG and MCF7-neo cells were transfected with pEGFP-ANK or pEGFP plasmids. […]
GST-SNCG (20 μg) protein or GST alone was added to a pre-equilibrated slurry of glutathione-sepharose 4B and incubated for 60 minutes. […] After extensive washes, the beads were collected, boiled in sample buffer, separated on 12% SDS gel and analyzed by western blotting. […]

For the compound `CC[C@H](C)[C@H](NC(=O)[C@H](CS)NC(=O)CNC(=O)[C@H](CC(C)C)NC(=O)[C@H](Cc1c[nH]cn1)NC(=O)CNC(=O)[C@H](Cc1c[nH]cn1)NC(=O)[C@H](CCC(N)=O)NC(=O)[C@H](CO)NC(=O)[C@H](C)NC(=O)[C@@H](NC(=O)[C@H](Cc1c[nH]cn1)NC(=O)[C@H](CC(C)C)NC(=O)[C@H](C)NC(=O)[C@H](CO)NC(=O)[C@H](CC(N)=O)NC(=O)CNC(=O)[C@H](CCCCN)NC(C)=O)C(C)C)C(=O)N[C@@H](CCC(N)=O)C(=O)N[C@H](C(=O)N[C@@H](CC(C)C)C(=O)N[C@H](C(=O)N[C@@H](CCCNC(=N)N)C(=O)N[C@@H](Cc1ccc(O)cc1)C(=O)NCC(=O)N[C@@H](C)C(=O)N[C@@H](CC(N)=O)C(=O)N[C@H](C(=O)N[C@H](C(=O)N[C@@H](CCSC)C(=O)N[C@@H](CCC(N)=O)C(=O)N[C@@H](CC(N)=O)C(=O)N[C@@H](Cc1c[nH]cn1)C(=O)NCC(N)=O)[C@@H](C)O)C(C)C)C(C)C)[C@@H](C)O` [ANK peptide] (Ac-KGNSALHVASQHGHLGCIQTLVRYGANVTMQNHG-NH2), the “binding of GST analyte to immobilized ANK peptide” value in test [1] is listed as “No binding”. In test [2], this compound returned a kd1 of 0.014 s⁻¹ and a kd2 of 0.000802 s⁻¹.
Consider “EGFP-ANK: ANK peptide expressed as a fusion protein with its amino-terminal linked to EGFP protein, approximately 37 kDa ({EGFP}-KGNSALHVASQHGHLGCIQTLVRYGANVTMQNHG)”, for which the “pull down by GST-SNCG” value in test [3] is “SNCG is capable of immunoprecipitating EGFP-ANK”.
